From paper PMC5931107, “Clinical pharmacodynamic/exposure characterisation of the multikinase inhibitor ilorasertib (ABT-348) in a phase 1 dose-escalation trial” (British Journal of Cancer, 2018)
Where two headings read alike, the source gives them in different places.

Assay: Plasma pharmacokinetics, Arm II (oral BID), phase 1 trial
Type: in vivo, human
Conditions: for half-life: read-out: t1/2 (harmonic mean) (converted); for Cmax: read-out: Cmax
Procedure: Pharmacokinetics of ilorasertib were evaluated in the dose-escalation cohort on blood samples that were collected on cycle 1 days 1 and 15. Parameters determined: Cmax, time to Cmax (Tmax), terminal phase elimination half-life (t1/2), clearance, apparent oral clearance (CL/F), and area under the plasma concentration-time curve from time 0 to time of last measurable concentration (AUCt) and from time 0 to infinity (AUC∞). For Arm I, blood samples were collected prior to dosing and at 0.5, 1, 2, 3, 4, 6, 8, 10 or 12, and 24 h after dosing on cycle 1 days 1 and 15; of note, for institutions not able to collect the 10- or 12-h post-dose sample, the 24-h sample was replaced with 22-h and 28-h post-dose samples. In Arm II, for the first dose, blood samples were collected pre-dose and at 1, 2, 3, and 4 h post-dose on cycle 1 days 1 and 15; for the second dose, samples were collected pre-dose and at 1, 2, 3, 4, 18, and 24 h after second dose on cycle 1 days 1 and 15. In Arm III, blood samples were collected prior to infusion, at 1 h 55 min (just before end of infusion), and at 0.5, 1, 2, 4, 6, 8, 10, and 24 h after end of infusion on cycle 1 days 1 and 15; here also, for institutions not able to collect the 8-h or 10-h after-end-of-infusion samples, the 24-h sample was replaced with 22-h and 28-h post-dose samples. The liquid chromatography (LC)-mass spectrometry (MS)/MS method was developed and validated in the Bioanalysis Department of AbbVie. Fifty microliter of human plasma (K2EDTA as anticoagulant) was fortified with 300 μL of deuterium-stable labelled internal standard and mixed well. A HybridSPE precipitation plate (50 mg/96 wells, Supelco Analytical, Munich, Germany) was used to directly load and elute (under slight vacuum) the fortified samples into a clean collection plate. Samples were dried before reconstitution with 100 μL of 20/80 (v/v) acetonitrile/water, and injected for LC-MS/MS analysis. A Halo C8 (Wilmington, DE, USA; 2.7 μm, 2.1 × 30 mm) was used on an Agilent 1290 Infinity UPLC pump (Agilent Technologies, Santa Clara, CA) to carry out the separation. An isocratic condition with 25/75/0.1 (v/v/v) acetonitrile/water/98% formic acid was used as the mobile phase. The flow rate was set to be 0.6 mL/min. An MPS 3 C ([…] Ruhr, Germany) autosampler was used to introduce samples onto the UPLC system. An API 4000 mass spectrometer (Applied Biosystems, Foster City, CA) was used in the multiple reactions monitoring mode for the detection and quantitation of analyte. Descriptive statistics were used for demographic variables. The numbers and percentages of patients with treatment-emergent AEs (TEAEs) were tabulated using the Medical Dictionary for Regulatory Activities version 16.0 system organ class and preferred term, and further classified according to CTCAE version 4.0 criteria. The safety data set included all patients who received one or more doses of ilorasertib. The pharmacokinetic data set included all patients who received one or more doses of ilorasertib and had one or more pharmacokinetic samples. Values for pharmacokinetic parameters were determined using non-compartmental methods, with data analysed separately for each arm. A repeated measures analysis was performed for Tmax and dose-normalised Cmax, AUCt, and AUC∞. The model included random effects for patient and fixed effects for dose level, day, and the interaction of dose level and day. To assess effects of exposure on pharmacodynamic biomarkers, Cmax was employed as the directly measured marker of exposure for the rapid changes in DBP and PlGF pre-steady-state, while AUC∞ reflected exposure variability at the time of post-multiple-dose skin biopsy. Descriptive statistics were used to summarise ECOG performance status. The efficacy data set included all patients who received one or more doses of ilorasertib.

[1] = human, plasma, po, 40 mg, Arm II PO BID 40 mg, day 1, N=2, mean (individual)
[2] = human, plasma, po, 40 mg, Arm II PO BID 40 mg, day 1, N=3
[3] = human, plasma, po, 40 mg, Arm II PO BID 40 mg, day 15, N=3
[4] = human, plasma, po, 60 mg, Arm II PO BID 60 mg, day 1, N=3
[5] = human, plasma, po, 60 mg, Arm II PO BID 60 mg, day 15, N=1
[6] = human, plasma, po, 60 mg, Arm II PO BID 60 mg, day 15, N=3
[7] = human, plasma, po, 90 mg, Arm II PO BID 90 mg, day 1, N=2, mean (individual)
[8] = human, plasma, po, 90 mg, Arm II PO BID 90 mg, day 15, N=3
[9] = human, plasma, po, 130 mg, Arm II PO BID 130 mg, day 1, N=3
[10] = human, plasma, po, 130 mg, Arm II PO BID 130 mg, day 1, N=4
[11] = human, plasma, po, 130 mg, Arm II PO BID 130 mg, day 15, N=1
[12] = human, plasma, po, 130 mg, Arm II PO BID 130 mg, day 15, N=3
[13] = human, plasma, po, 190 mg, Arm II PO BID 190 mg, day 15, N=2, mean (individual)
[14] = human, plasma, po, 190 mg, Arm II PO BID 190 mg, day 15, N=5
[15] = human, plasma, po, 230 mg, Arm II PO BID 230 mg, day 1, N=2, mean (individual)
[16] = human, plasma, po, 230 mg, Arm II PO BID 230 mg, day 1, N=3
[17] = human, plasma, po, 230 mg, Arm II PO BID 230 mg, day 15, N=1
[18] = human, plasma, po, 230 mg, Arm II PO BID 230 mg, day 15, N=4
[19] = human, plasma, po, 340 mg, Arm II PO BID 340 mg, day 1, N=1
[20] = human, plasma, po, 340 mg, Arm II PO BID 340 mg, day 1, N=3
[21] = human, plasma, po, 340 mg, Arm II PO BID 340 mg, day 15, N=1

Nc1ncc(-c2cnn(CCO)c2)c2scc(-c3ccc(NC(=O)Nc4cccc(F)c4)cc3)c12 [ilorasertib, Ilorasertib]
Tmax (Arm II, oral administration in two divided doses, versus Arm I): delayed by several hours
AUC(0-inf) [1]: 3990 ng·h/mL
half-life [1]: 11 h
AUC(0-t) [2]: 3720 ± 1640 ng·h/mL
Cmax [2]: 250 ± 120 ng/mL
Tmax (human, plasma, po, 40 mg, Arm II PO BID 40 mg, day 1, N=3, read-out: Tmax): 7.3 ± 3.8 h
AUC(0-t) [3]: 3750 ± 2050 ng·h/mL
Cmax [3]: 190 ± 110 ng/mL
Tmax (human, plasma, po, 40 mg, Arm II PO BID 40 mg, day 15, N=3, read-out: Tmax): 10 h
AUC(0-t) [4]: 5450 ± 1460 ng·h/mL
Cmax [4]: 380 ± 140 ng/mL
Tmax (human, plasma, po, 60 mg, Arm II PO BID 60 mg, day 1, N=3, read-out: Tmax): 5.7 ± 3.8 h
AUC(0-inf) [5]: 5430 ng·h/mL
half-life [5]: 11.8 h
AUC(0-t) [6]: 2920 ± 710 ng·h/mL
Cmax [6]: 230 ± 60 ng/mL
Tmax (human, plasma, po, 60 mg, Arm II PO BID 60 mg, day 15, N=3, read-out: Tmax): 4.8 ± 2.8 h
AUC(0-inf) [7]: 4030 ng·h/mL
half-life [7]: 10.1 h
AUC(0-t) (human, plasma, po, 90 mg, Arm II PO BID 90 mg, day 1, N=3): 3920 ± 1530 ng·h/mL
Tmax (human, plasma, po, 90 mg, Arm II PO BID 90 mg, day 1, N=3, read-out: Tmax): 9 ± 1 h
AUC(0-inf) (human, plasma, po, 90 mg, Arm II PO BID 90 mg, day 15, N=2, mean (individual)): 5330 ng·h/mL
AUC(0-t) [8]: 4060 ± 1510 ng·h/mL
Cmax [8]: 320 ± 100 ng/mL
Tmax (human, plasma, po, 90 mg, Arm II PO BID 90 mg, day 15, N=3, read-out: Tmax): 7.6 ± 5.4 h
AUC(0-inf) [9]: 6530 ± 4460 ng·h/mL
half-life [9]: 18.6 ± 17.6 h
AUC(0-t) [10]: 5070 ± 3180 ng·h/mL
Cmax [10]: 600 ± 390 ng/mL
Tmax (human, plasma, po, 130 mg, Arm II PO BID 130 mg, day 1, N=4, read-out: Tmax): 7.5 ± 1.7 h
AUC(0-inf) [11]: 3960 ng·h/mL
half-life [11]: 7.5 h
AUC(0-t) [12]: 2400 ± 1290 ng·h/mL
Cmax [12]: 260 ± 280 ng/mL
Tmax (human, plasma, po, 130 mg, Arm II PO BID 130 mg, day 15, N=3, read-out: Tmax): 11 ± 11.5 h
AUC(0-inf) (human, plasma, po, 190 mg, Arm II PO BID 190 mg, day 1, N=4): 17800 ± 11300 ng·h/mL
Cmax (human, plasma, po, 190 mg, Arm II PO BID 190 mg, day 1, N=7): 540 ± 280 ng/mL
Tmax (human, plasma, po, 190 mg, Arm II PO BID 190 mg, day 1, N=7, read-out: Tmax): 10.2 ± 6.7 h
AUC(0-inf) [13]: 10700 ng·h/mL
half-life [13]: 8.4 h
AUC(0-t) [14]: 6690 ± 5220 ng·h/mL
Cmax [14]: 630 ± 380 ng/mL
Tmax (human, plasma, po, 190 mg, Arm II PO BID 190 mg, day 15, N=5, read-out: Tmax): 13.2 ± 10.2 h
AUC(0-inf) [15]: 9140 ng·h/mL
half-life [15]: 9 h
AUC(0-t) [16]: 10100 ± 3620 ng·h/mL
Cmax [16]: 700 ± 230 ng/mL
Tmax (human, plasma, po, 230 mg, Arm II PO BID 230 mg, day 1, N=3, read-out: Tmax): 8.7 ± 1.2 h
AUC(0-inf) [17]: 13000 ng·h/mL
half-life [17]: 8 h
AUC(0-t) [18]: 11200 ± 4340 ng·h/mL
Cmax [18]: 790 ± 460 ng/mL
Tmax (human, plasma, po, 230 mg, Arm II PO BID 230 mg, day 15, N=4, read-out: Tmax): 9.5 ± 0.6 h
AUC(0-inf) [19]: 98800 ng·h/mL
half-life [19]: 39.6 h
AUC(0-t) [20]: 39300 ± 14800 ng·h/mL
Cmax [20]: 2040 ± 870 ng/mL
Tmax (human, plasma, po, 340 mg, Arm II PO BID 340 mg, day 1, N=3, read-out: Tmax): 15 ± 8 h
AUC(0-t) [21]: 15700 ng·h/mL
Cmax [21]: 770 ng/mL
Tmax (human, plasma, po, 340 mg, Arm II PO BID 340 mg, day 15, N=1, read-out: Tmax): 10 h
Tmax (human, plasma, po, Arm II PO BID all doses, day 1, N=26, read-out: Tmax): 9.2 ± 5 h
Tmax (human, plasma, po, Arm II PO BID all doses, day 15, N=22, read-out: Tmax): 9.7 ± 6.6 h
